Series [1] deals with emesis in the dog. Description: Emesis in the Dog (apomorphine-induced retching and vomiting). The series is classed as in vivo. To be noted: adult female dogs; test compound i.v. at 1.0 mg/kg; 5 min later subcutaneous apomorphine (0.1 mg/0.5 ml/kg); observed for 60 min. The protocol:
Individually housed adult female dogs (8 to 15 kg) were given an i.v. injection of a solution containing a test compound. 5 Min later the emetic responses (retching and vomiting) were induced by administration of subcutaneous apomorphine (0.1 mg/0.5 ml/kg) and observed for the next 60 min. The timing and number of retches and vomits observed were recorded for each animal. An individual animal was tested with at least 10 days between experiments.

The melting point is the temperature, or range, at which the solid turns liquid. The compound `CCOC(=O)N1CCN2[C@H](CN(Cc3cc(-n4nnnc4C(F)(F)F)ccc3OC)C[C@H]2C(c2ccccc2)c2ccccc2)C1.Cl.Cl` registered a melting point of 153 to 156 °C.
`CC(=O)N1CCN2[C@H](CN(Cc3cc(-n4nnnc4C(F)(F)F)ccc3OC(C)C)C[C@H]2C(c2ccccc2)c2ccccc2)C1.Cl.Cl` came in with a melting point of 167 to 171 °C.
In turn, `CCC(=O)N1CCN2[C@H](CN(Cc3cc(-n4nnnc4C(F)(F)F)ccc3OC)C[C@H]2C(c2ccccc2)c2ccccc2)C1.Cl.Cl` gave a melting point of 171 to 175 °C.
`COc1ccc(-c2ccncc2)cc1CN1C[C@@H]2CN(C(C)=O)CCN2[C@H](C(c2ccccc2)c2ccccc2)C1.Cl.Cl.Cl`: the melting point lay within 210 to 215 °C.
Compound `COc1ccc(-c2ccsc2)cc1CN1C[C@@H]2CN(C(C)=O)CCN2[C@H](C(c2ccccc2)c2ccccc2)C1.Cl.Cl` displayed a melting point of 177 to 181 °C.
`CCOc1ccc(-n2nnnc2C(F)(F)F)cc1CN1C[C@@H]2CN(C(C)=O)CCN2[C@H](C(c2ccccc2)c2ccccc2)C1.Cl.Cl` yielded a melting point of 162 to 165 °C.
For the compound `COc1cc(OC)c(CN2C[C@@H]3CN(C(C)=O)CCN3[C@H](C(c3ccccc3)c3ccccc3)C2)c(OC)c1.Cl.Cl`, the melting point lay within 170 to 173 °C.
Turning to `COc1ccc(-n2nnnc2C(F)(F)F)cc1CN1C[C@@H]2CN(C(=O)CC(C)C)CCN2[C@H](C(c2ccccc2)c2ccccc2)C1.Cl.Cl`, the melting point was 138 to 150 °C (dec.).
On to `COC(=O)N1CCN2[C@H](CN(Cc3cc(-n4nnnc4C(F)(F)F)ccc3OC)C[C@H]2C(c2ccccc2)c2ccccc2)C1.Cl.Cl` [Example 28, (6R,9aR)-6-benzhydryl-8-[2-methoxy-5-[5-(trifluoromethyl)-1H-tetrazol-1-yl]benzyl]octahydropyrazino[1,2-a]pyrazine-2-carboxylic acid methyl ester dihydrochloride], for which the “inhibition rate of emesis” value in series [1] is 90%.
Compound `COc1ccc(-c2ccoc2)cc1CN1C[C@@H]2CN(C(C)=O)CCN2[C@H](C(c2ccccc2)c2ccccc2)C1.Cl.Cl` displayed a melting point of 173 to 177 °C.
On the same count and under the same terms, the figure for `COc1ccncc1CN1C[C@@H]2CN(C(C)=O)CCN2[C@H](C(c2ccccc2)c2ccccc2)C1.Cl.Cl.Cl` is 205 to 210 °C; for `COc1ccc(-n2nnnc2C(F)(F)F)cc1CN1C[C@@H]2CN(S(=O)(=O)C(C)C)CCN2[C@H](C(c2ccccc2)c2ccccc2)C1.Cl.Cl` it is 150 to 155 °C.
On the same count and under the same terms, the figure for `COc1ccc(-n2nnnc2C(F)(F)F)cc1CN1C[C@@H]2CN(C(=O)OC(C)C)CCN2[C@H](C(c2ccccc2)c2ccccc2)C1.Cl.Cl` is 147 to 150 °C; for `CCCS(=O)(=O)N1CCN2[C@H](CN(Cc3cc(-n4nnnc4C(F)(F)F)ccc3OC)C[C@H]2C(c2ccccc2)c2ccccc2)C1.Cl.Cl` it is 146 to 165 °C; for `CCS(=O)(=O)N1CCN2[C@H](CN(Cc3cc(-n4nnnc4C(F)(F)F)ccc3OC)C[C@H]2C(c2ccccc2)c2ccccc2)C1.Cl.Cl` it is 143 to 146 °C.
As to `CCCC(=O)N1CCN2[C@H](CN(Cc3cc(-n4nnnc4C(F)(F)F)ccc3OC)C[C@H]2C(c2ccccc2)c2ccccc2)C1.Cl.Cl`, the melting point is 162 to 166 °C.
`COc1ccc(-n2nnnc2C(F)(F)F)cc1CN1C[C@@H]2CN(C(=O)C(C)C)CCN2[C@H](C(c2ccccc2)c2ccccc2)C1.Cl.Cl` gave a melting point of 172 to 175 °C.
Same read-out and setting: the same measure for `COc1ccc(C(F)(F)F)cc1CN1C[C@@H]2CN(C(C)=O)CCN2[C@H](C(c2ccccc2)c2ccccc2)C1.Cl.Cl`: 147 to 150 °C.

Values taken from patent US6787543B2, “Benzhydryl derivatives” (Fujisawa Pharmaceutical Co., Ltd., priority 2002, dated 2004).
